These results are taken from US20250228838A1, “METHODS OF USE OF CYCLIC AMIDE DERIVATIVES TO TREAT SIGMA RECEPTOR MEDIATED DISORDERS” (Minerva Neurosciences, Inc., priority 2010, published 2025).

For data set [1], the system named is patients with DSM-IV schizophrenia. The data set is described as follows: Phase 2 double-blind, randomized, placebo-controlled clinical study of CYR-101. Type of data set: in vivo, human. As for the experimental part: A study was conducted using the compound of formula II, to examine the efficacy on schizophrenia and treatment of symptoms of schizophrenia. The study was a multi-center, inpatient and ambulatory, phase 2, double-blind, randomized, placebo-controlled proof of concept study of the compound of formula II in patients with DSM-IV schizophrenia. The study used 21 centers across three different countries. The study was designed to test the therapeutic efficacy of the compound of formula II on all dimensions of schizophrenic disease (E.g., positive, negative, and general symptoms, cognition, sleep, mood and anxiety). The study also examined the safety of the administered doses of the compound of formula II (also referred to herein as CYR-101), including heart repolarization (i.e., QT interval), weight change, adverse events, prolactin, and extrapyramidal symptoms). The study was conducted for a time period of three months. […] In one aspect of the study, the dosage of compound was titrated up to 32 mg b.i.d. The resulting data was analyzed one of three ways: 1.) Safety set; 2.) Full analysis set, with each patient having at least one PANSS evaluation after treatment initiation included in the efficacy analysis. The LOCF method is used; and 3.) Per protocol set, where for certain analyses, all patients having completed three months of treatment are included. ANCOVA followed by a contrast analysis at each time point were applied and in some cases, a non-parametric Wilcoxon test was used.

Data set [2] deals with sigma 2 receptor (Homo sapiens, UniProt Q5BJF2). Conditions: cited from earlier work.
For data set [3], the target named is 5-HT2A (Homo sapiens, UniProt P28223). Conditions: cited from earlier work.
Data set [4] deals with dopamine. Conditions: cited from earlier work.

The structures appear in SMILES notation.

Chain of sigma 2 receptor (Q5BJF2 whole entry, species assumed): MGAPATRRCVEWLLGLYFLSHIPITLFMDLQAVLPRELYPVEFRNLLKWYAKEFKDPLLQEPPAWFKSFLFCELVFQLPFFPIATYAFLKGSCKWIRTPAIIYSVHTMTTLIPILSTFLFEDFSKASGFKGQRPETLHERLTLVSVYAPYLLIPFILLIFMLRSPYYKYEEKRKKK
Chain of 5-HT2A (P28223 whole entry, species assumed): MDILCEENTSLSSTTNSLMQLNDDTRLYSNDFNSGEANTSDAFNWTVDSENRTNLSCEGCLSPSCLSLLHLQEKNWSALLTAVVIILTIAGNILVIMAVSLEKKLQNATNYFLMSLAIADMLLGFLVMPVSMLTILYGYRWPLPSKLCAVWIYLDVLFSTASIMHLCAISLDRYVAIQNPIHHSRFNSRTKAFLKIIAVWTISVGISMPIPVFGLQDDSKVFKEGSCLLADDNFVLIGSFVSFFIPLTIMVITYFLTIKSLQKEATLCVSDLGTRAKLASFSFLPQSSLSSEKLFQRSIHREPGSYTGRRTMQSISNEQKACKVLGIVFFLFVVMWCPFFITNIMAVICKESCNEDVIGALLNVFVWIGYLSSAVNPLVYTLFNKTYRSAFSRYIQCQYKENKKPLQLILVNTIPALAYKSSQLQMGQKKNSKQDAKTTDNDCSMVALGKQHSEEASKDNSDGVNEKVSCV

`O=C(CN1CCC(CN2Cc3ccccc3C2=O)CC1)c1ccc(F)cc1` [CYR-101, 2-[[1-[2-(4-Fluorophenyl)-2-oxoethyl]piperidin-4-yl]methyl]isoindolin-1-one]: the QT interval entry in data set [1] (doses up to 32 mg b.i.d., clinically acceptable limits E.g. 10-15 milliseconds or less) was “did not cross clinically acceptable limits”. Also, the “cognitive performances assessed by BACS, versus placebo” value in data set [1] (full analysis set (FAS)) is “no differences between the placebo group and the CYR-101 group, except for the Token motor task”. For the same compound, the “cognitive performances assessed by BACS, versus placebo” value in data set [1] (per protocol set (PPC) at D84, Token motor task, list learning task, verbal fluency, processing speed, not statistically significant) is on record as “slight difference in favour of CYR-101 group”. In data set [1] (schizophrenic patients), the “duration of continued improvement in both positive and negative symptoms” value is given as “continued for more than twelve weeks”; the effect on cognition result was “positive effect on cognition”; the “mood, anxiety and sleep” value was “some improvements of mood, anxiety and sleep”. Further, the “improvement in positive symptoms” value in data set [1] (schizophrenic patients, PANSS) is on record as “did not improve until after the first four weeks of treatment”. In data set [1] (schizophrenic patients, PANSS, course of treatment), the “improvement in negative symptoms” value was “observed immediately, and continued through the course of treatment”. Moreover, the “emergence or worsening of extrapyramidal symptoms, CYR-101 versus placebo” value in data set [1] (schizophrenic patients, three months, titrated up to 32 mg b.i.d.) is “no significant difference”. Further, in data set [1] (three SAE in total, two in placebo group, unlikely related to CYR-101), the “number of SAE in the active treatment group” value is “one”. For the same compound, the Ki in data set [2] (Table 3 of U.S. Pat. No. 7,166,617, read-out: affinity for the sigma 2 receptor) was 13 nM. Further, in data set [2], the “mode of action at sigma 2” value is reported as “antagonist” and the “sigma 2 selectivity of receptor binding” value is given as “sigma 2-selective receptor binding”. In data set [3], the “mode of action at 5-HT2A” value is “antagonist”. In data set [4], the dopamine binding result is given as “devoid of dopamine binding properties”.
